Assay results from the supplement of paper PMC11061612.

What was measured:
[1] = tested on: GB-1 (Glioblastoma); assay: Bliss excess, mean over the matrix (fraction); higher = more synergy
Method in brief: (§1)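 Cell lines grown in DMEM/F12 or RPMI with 10% FBS were plated in 1536-well plates and held 24 hours at 37°C, 5% CO2 before 72 hours of exposure to two-drug dose matrices, with DMSO typically at 0.2%. CellTiter-Glo 2.0 luminescence gave viability, which was converted to inhibition. Vehicle wells were set to 0 and blank wells to 1. Combination Emax is the second-highest inhibition in the matrix, and Bliss excess is the observed combination effect minus the expected EA + EB − EA·EB, where EA and EB are the single-agent effects.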

[2] = tested on: RKN (Other Solid Carcinomas); assay: as above
Method in brief: as §1

[3] = tested on: SF539 (Glioblastoma); assay: as above
Method in brief: as §1

[4] = tested on: A2058 (Melanoma); assay: combination Emax (second highest fraction inhibited in the dose matrix, 72 h); higher = more inhibition; extreme values may be limits of the assay
Method in brief: as §1

[5] = tested on: CAL-120 (Breast Carcinoma); assay: as above
Method in brief: as §1

[6] = tested on: CAL-62 (Thyroid Gland Carcinoma); assay: as above
Method in brief: as §1

[7] = tested on: COLO-680N (Esophageal Squamous Cell Carcinoma); assay: as above
Method in brief: as §1

[8] = tested on: KE-37 (T-Lymphoblastic Leukemia); assay: as above
Method in brief: as §1

[9] = tested on: MFE-280 (Endometrial Carcinoma); assay: as above
Method in brief: as §1

[10] = tested on: MKN45 (Gastric Carcinoma); assay: as above
Method in brief: as §1

[11] = tested on: NCI-H2342 (Lung Adenocarcinoma); assay: as above
Method in brief: as §1

[12] = tested on: NCI-H446 (Small Cell Lung Carcinoma); assay: as above
Method in brief: as §1

[13] = tested on: OVMIU (Ovarian Carcinoma); assay: as above
Method in brief: as §1

[14] = tested on: PANC-03-27 (Pancreatic Carcinoma); assay: as above
Method in brief: as §1

[15] = tested on: PC-3_[JPC-3] (Lung Adenocarcinoma); assay: as above
Method in brief: as §1

[16] = tested on: RCM-1 (Colorectal Carcinoma); assay: as above
Method in brief: as §1

[17] = tested on: RERF-GC-1B (Gastric Carcinoma); assay: as above
Method in brief: as §1

[18] = tested on: SF268 (Low Grade Glioma); assay: as above
Method in brief: as §1

[19] = tested on: VAL (B-Cell Non-Hodgkin's Lymphoma); assay: as above
Method in brief: as §1

[20] = tested on: WM793B (Melanoma); assay: as above
Method in brief: as §1
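Wherever Bliss excess, mean over the matrix is given: after 72 h of two-drug dosing.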

| Structure (SMILES) | Bliss excess [1] | Bliss excess [2] | Bliss excess [3] | combination Emax [4] | combination Emax [5] | combination Emax [6] | combination Emax [7] | combination Emax [8] | combination Emax [9] | combination Emax [10] | combination Emax [11] | combination Emax [12] | combination Emax [13] | combination Emax [14] | combination Emax [15] | combination Emax [16] | combination Emax [17] | combination Emax [18] | combination Emax [19] | combination Emax [20] |
| --- | --- | --- | --- | --- | --- | --- | --- | --- | --- | --- | --- | --- | --- | --- | --- | --- | --- | --- | --- | --- |
| CC1(C)CCC(CN2CCN(c3ccc(C(=O)NS(=O)(=O)c4ccc(NCC5CCOCC5)c([N+](=O)[O-])c4)c(Oc4cnc5[nH]ccc5c4)c3)CC2)=C(c2ccc(Cl)cc2)C1 [Venetoclax] + CCN(CCO)CCCOc1ccc2c(Nc3cc(CC(=O)Nc4cccc(F)c4)[nH]n3)ncnc2c1 [AZD2811] (first compound max 1 µM, 7x7, partner max 1 µM) | -0.0501 | -0.011 | 0.0468 | 0.402 | 0.153 | 0.252 | 0.187 | 1 | 0.371 | 0.588 | 0.217 | 0.894 | 0.289 | 0.673 | 0.182 | 0.372 | 0.298 | 0.328 | 1 | 0.258 |
| C[C@@H]1COCCN1c1cc(C2([S@](C)(=N)=O)CC2)nc(-c2ccnc3[nH]ccc23)n1 [AZD6738] + O=C(c1cc(Cc2n[nH]c(=O)c3ccccc23)ccc1F)N1CCN(C(=O)C2CC2)CC1 [Olaparib] (first compound max 10 µM, 7x7, partner max 10 µM) | 0.012 | -0.007 | -0.0047 | 0.205 | 0.386 | 0.899 | 0.392 | 1 | 0.403 | 0.763 | 0.208 | 0.811 | 0.429 | 0.829 | 0.359 | 0.623 | 0.442 | 0.407 | 0.909 | 0.822 |
| COc1cccc(OCCCN)c1-c1cc(Nc2cnc(C#N)cn2)n[nH]1 [Prexasertib] + O=C(c1cc(Cc2n[nH]c(=O)c3ccccc23)ccc1F)N1CCN(C(=O)C2CC2)CC1 [Olaparib] (first compound max 1 µM, 7x7, partner max 10 µM) | -0.0002 | -0.0958 | 0.0007 | 0.508 | 0.526 | 0.779 | 0.342 | 1 | 0.416 | 0.854 | 0.302 | 0.963 | 0.592 | 0.918 | 0.31 | 0.596 | 0.552 | 0.623 | 0.93 | 0.873 |
| CS(=O)(=O)CCNCc1ccc(-c2ccc3ncnc(Nc4ccc(OCc5cccc(F)c5)c(Cl)c4)c3c2)o1 [Lapatinib] + C[C@@H](Oc1cc(-c2cnn(C3CCNCC3)c2)cnc1N)c1c(Cl)ccc(F)c1Cl [Crizotinib] (first compound max 10 µM, 7x7, partner max 10 µM) | -0.11 | -0.05 | -0.0621 | 0.991 | 0.734 | 0.776 | 0.483 | 0.975 | 0.88 | 0.913 | 0.43 | 0.965 | 0.969 | 0.835 | 0.922 | 0.865 | 0.951 | 0.902 | 0.808 | 0.973 |
| COc1nnc2ccc(N3CCC(c4ccc(OCCN5CCN(C)C(=O)[C@H]5C)cc4)CC3)nn12 [AZD5153] + C[C@@H]1COCCN1C2=NC(=NC(=C2)C3(CC3)[S@](=N)(=O)C)C4=C5C=CNC5=NC=C4 [AZD6738] (first compound max 1 µM, 7x7, partner max 10 µM) | 0.0446 | -0.0757 | 0.0418 | 0.908 | 0.589 | 0.895 | 0.383 | 0.978 | 0.425 | 0.782 | 0.673 | 0.951 | 0.795 | 0.489 | 0.5 | 0.674 | 0.796 | 0.773 | 0.835 | 0.827 |
| CN(CCO)CC[C@H](CSc1ccccc1)Nc1ccc(S(=O)(=O)NC(=O)c2ccc(N3CCC([C@@H](O)c4ccccc4-c4ccc(Cl)cc4)CC3)cc2)cc1S(=O)(=O)C(F)(F)F [AZD4320] + C=CCn1c(=O)c2cnc(Nc3ccc(N4CCN(C)CC4)cc3)nc2n1-c1cccc(C(C)(C)O)n1 [AZD1775] (first compound max 1 µM, partner max 1 µM) | -0.0642 | -0.0357 | -0.0518 | 0.355 | 0.854 | 0.878 | 0.223 | 1 | 0.953 | 0.826 | 0.38 | 0.963 | 0.976 | 0.985 | 0.411 | 0.717 | 0.962 | 0.587 | 1 | 0.622 |
| Cc1c2c(nn1C)CSCc1cc(n(C)n1)CSc1cc(c3ccccc3c1)OCCCc1c(C(=O)O)n(C)c3c-2c(Cl)ccc13 [AZD5991] + C[C@@H]1COCCN1C2=NC(=NC(=C2)C3(CC3)[S@](=N)(=O)C)C4=C5C=CNC5=NC=C4 [AZD6738] (first compound max 1 µM, 7x7, partner max 10 µM) | 0.0116 | 0.0098 | -0.0231 | 0.925 | 0.413 | 0.806 | 0.324 | 1 | 0.384 | 0.807 | 0.333 | 0.948 | 0.483 | 0.819 | 0.37 | 0.801 | 1 | 0.692 | 0.933 | 0.834 |
| Cc1c2c(nn1C)CSCc1cc(n(C)n1)CSc1cc(c3ccccc3c1)OCCCc1c(C(=O)O)n(C)c3c-2c(Cl)ccc13 [AZD5991] + C1CN(CCC1(C(=O)N[C@@H](CCO)C2=CC=C(C=C2)Cl)N)C3=NC=NC4=C3C=CN4 [Capivasertib] (first compound max 1 µM, 7x7, partner max 3 µM) | -0.0365 | -0.0234 | -0.0043 | 0.908 | 0.256 | 0.152 | 0.139 | 1 | 0.461 | 0.467 | 0.298 | 0.838 | 0.353 | 0.167 | 0.203 | 0.307 | 0.989 | 0.216 | 0.811 | 0.31 |
| COc1cccc(OCCCN)c1-c1cc(Nc2cnc(C#N)cn2)n[nH]1 [Prexasertib] + CN(C)CCCOc1ccc(-c2ccc3ncc4c(c3c2)n(C2CCOCC2)c(=O)n4C)cn1 [AZD0156] (first compound max 1 µM, 7x7, partner max 1 µM) | -0.0079 | -0.0478 | -0.0339 | 0.391 | 0.456 | 0.735 | 0.414 | 1 | 0.441 | 0.836 | 0.345 | 0.982 | 0.684 | 0.902 | 0.384 | 0.818 | 0.616 | 0.493 | 0.924 | 0.903 |
| Cc1cc2ncnn2cc1Nc1ncc2c(n1)n(C1CCOCC1)c(=O)n2C [AZD7648] + O=C(c1cc(Cc2n[nH]c(=O)c3ccccc23)ccc1F)N1CCN(C(=O)C2CC2)CC1 [Olaparib] (first compound max 10 µM, 7x7, partner max 10 µM) | -0.0227 | -0.021 | -0.0236 | 0.0679 | 0.149 | 0.377 | 0.101 | 0.585 | 0.434 | 0.264 | 0.12 | 0.273 | 0.306 | 0.185 | 0.19 | 0.125 | 0.228 | 0.117 | 0.601 | 0.341 |
| COc1cc2c(cc1OCCCCCOc1cc3c(cc1OC)C(=O)N1C=C(C)C[C@H]1C=N3)N=C[C@@H]1CC(C)=CN1C2=O [SG3199] + O=C(c1cc(Cc2n[nH]c(=O)c3ccccc23)ccc1F)N1CCN(C(=O)C2CC2)CC1 [Olaparib] (first compound max 0.001 µM, 7x7, partner max 10 µM) | -0.0328 | -0.0377 | -0.0049 | 0.141 | 0.142 | 0.102 | 0.0893 | 0.348 | 0.184 | 0.0741 | 0.0836 | 0.285 | 0.0896 | 0.0754 | 0.193 | 0.0628 | 0.245 | 0.115 | 0.57 | 0.194 |
| CN(CCO)CC[C@H](CSc1ccccc1)Nc1ccc(S(=O)(=O)NC(=O)c2ccc(N3CCC([C@@H](O)c4ccccc4-c4ccc(Cl)cc4)CC3)cc2)cc1S(=O)(=O)C(F)(F)F [AZD4320] + C[C@@H](Nc1cc(F)cc(F)c1)c1cc(C(=O)N(C)C)cc2c(=O)cc(N3CCOCC3)oc12 [AZD8186] (first compound max 1 µM, 7x7, partner max 3 µM) | -0.0289 | -0.0338 | 0.0425 | 0.765 | 0.735 | 0.925 | 0.243 | 1 | 0.864 | 0.345 | 0.443 | 0.811 | 0.534 | 0.564 | 0.562 | 0.532 | 0.549 | 0.66 | 1 | 0.531 |
| Cc1cc2ncnn2cc1Nc1ncc2c(n1)n(C1CCOCC1)c(=O)n2C [AZD7648] + CN(C)CCCOc1ccc(-c2ccc3ncc4c(c3c2)n(C2CCOCC2)c(=O)n4C)cn1 [AZD0156] (first compound max 10 µM, 7x7, partner max 1 µM) | -0.0089 | -0.0352 | 0.0407 | 0.182 | 0.414 | 0.321 | 0.188 | 0.659 | 0.359 | 0.428 | 0.249 | 0.309 | 0.474 | 0.318 | 0.31 | 0.201 | 0.29 | 0.187 | 0.53 | 0.361 |
